# Laboratory results published in patent publication US12479803B2, “Antimalarial compounds” (UNIVERSITY OF CENTRAL FLORIDA RESEARCH FOUNDATION, INC., priority 2019, dated 2025).
# Values joined by “and” are separate entries in the source; they are usually repeats but may differ in a detail not shown here. Equal entries are not always repeated. Where two headings read alike, the source gives them in different places.
# Tests used:
# [1] = system: CQ-resistant (Dd2) strain of P. falciparum; assay: In vitro antiplasmodial activity, SYBR Green I fluorescence assay, Dd2 strain; format: cell-based, Plasmodium falciparum
# Method: (§1) A set of 104 new styrylquinoline derivatives were synthesized and investigated for in vitro their antimalarial activity. To test antimalarial activities, different dilutions of compounds were added to P. falciparum culture. Following 72 h incubation at 37° C. in an atmosphere containing 5% CO2, the inhibitory property of the compounds were determined by SYBR Green I fluorescence assay. Meanwhile, SARs studies were conducted.
# The SAR studies were focused on improving the in vitro activity of 2-arylvinylquinolines against the CQ-resistant Pf Dd2 strain.
# HepG2 = assay: Cytotoxicity assay using MTS in human hepatocytes; format: cell-based; settings: for SI, selectivity index = [IC50 (HepG2)/IC50 (Dd2)]: HepG2 versus Dd2
# [2] = system: P. falciparum 3D7 strain (CQ-sensitive); assay: In vitro antiplasmodium activity, 3D7 strain; format: cell-based, Plasmodium falciparum
# Method: as §1
# [3] = In vitro microsomal turnover assay (metabolic stability)
# Method: Selectivity of compounds were determined by cytoxicity assay using MTS [(3-(4,5-dimethylthiazol-2-yl)-5-(3-carboxymethoxyphenyl)-2-(4-sulfophenyl)-2H-tetrazolium) in human hepatocytes. The metabolic stability of compounds was determined in mouse liver microsomes using an NADPH-regenerating system. The aqueous solubility at pH 7.4 was determined by UV-visible absorption based method. The permeability was assessed by the in vitro double-sink parallel artificial membrane permeability assay 52 that is a model for the passive transport from the gastrointestinal tract into the blood stream.
# To assess the metabolic stability, the selected compounds were subjected to an in vitro microsomal turnover assay with mouse liver microsomal preparations. This assay determines the percentage of the parent compound residues after 60 min incubation (Table 7).
# [4] = CQ-resistant (Dd2) strain, 72 h incubation, read-out: EC50 (nmol)
# [5] = Table 6A, unit not given (text gives nM), footnote calls it IC50, read-out: Antiplasmodium activity Dd2 (converted)
# [6] = Table 6A, nM, footnote calls it IC50, read-out: Antiplasmodium activity 3D7 (converted)
# [7] = mouse liver microsomes, 60 min incubation
# [8] = Table 6B, unit inferred, footnote IC50 (HepG2), read-out: Cytotoxic activity HepG2 (converted)
structure (smiles),measurement,setting,value
Fc1ccc(/C=C/c2cc(NCCN3CCOCC3)c3cc(Cl)ccc3n2)cc1 [Compound 81],"RI, resistance index = [IC50 (Dd2)/IC50 (3D7)]",[1],0.6
same,EC50,[1]; [4],24.2 ± 0.8 nM
same,EC50,[1]; [5],24.2 ± 0.8 nM
same,IC50,HepG2,17200 ± 3300 nM
same,"SI, selectivity index = [IC50 (HepG2)/IC50 (Dd2)]",HepG2,711
same,EC50,[2]; [6],41.8 ± 12.7 nM
Clc1ccc2nc(/C=C/c3ccncc3)cc(NCCCCN3CCOCC3)c2c1 [Compound 93],Projected t1/2,[3],14.4 min
same,Clint,"[3]; mouse, microsomes",96.2 µL/min/mg
same,% remaining after 60 min,"[3]; mouse, microsomes, 1 h",5.62%
same,EC50,[1]; [4],9.9 ± 1.3 nM
same,EC50,"[1]; Dd2 strain, read-out: EC50",9.9 ± 1.3 nM
same,EC50,[1]; [5],9.9 nM
same,IC50,HepG2,5670 nM
same,"SI, selectivity index = [IC50 (HepG2)/IC50 (Dd2)]",HepG2,561
same,EC50,[2]; [6],20.8 nM
Fc1ccc(/C=C/c2cc(NCCCCN3CCOCC3)c3cc(Cl)ccc3n2)cc1 [Compound 92],Projected t1/2,[3],22.2 min
same,Clint,"[3]; mouse, microsomes",62.4 µL/min/mg
same,% remaining after 60 min,"[3]; mouse, microsomes, 1 h",15.4%
same,EC50,[1]; [4],2.4 ± 1.1 nM
same,EC50,[1]; [5],2.4 ± 1.1 nM
same,IC50,HepG2,3550 ± 384 nM
same,"SI, selectivity index = [IC50 (HepG2)/IC50 (Dd2)]",HepG2,1478
same,EC50,[2]; [6],6.9 ± 1.3 nM
Fc1ccc(/C=C/c2cc(NCCCCN3CCOCC3)c3cc(Cl)ccc3n2)cc1F [Compound 105],Clint,[3]; mouse liver microsomes,53.7 µL/min/mg
same,Projected t1/2,[3]; mouse liver microsomes (MLM),25.8 min
same,% remaining after 60 min,[3]; [7],19.9%
same,EC50,[1]; [4],25.5 ± 6.1 nM
same,EC50,[1]; [5],25.5 nM
same,"SI, selectivity index = [IC50 (HepG2)/IC50 (Dd2)]",HepG2,241
same,IC50,HepG2; [8],6140 nM
same,EC50,[2]; [6],27.6 nM
Fc1ccc(/C=C/c2cc(NCc3ccccn3)c3cc(Cl)ccc3n2)cc1 [Compound 72],Projected t1/2,[3],65.3 min
same,Clint,"[3]; mouse, microsomes",21.2 µL/min/mg
same,% remaining after 60 min,"[3]; mouse, microsomes, 1 h",52.9%
same,"RI, resistance index = [IC50 (Dd2)/IC50 (3D7)]",[1],0.6
same,EC50,[1]; [4],156 ± 34.5 nM
same,EC50,"[1]; Dd2 strain, read-out: EC50",156 ± 34.5 nM
same,EC50,[1]; [5],156 ± 34.5 nM
same,IC50,HepG2,19800 ± 3270 nM
same,"SI, selectivity index = [IC50 (HepG2)/IC50 (Dd2)]",HepG2,127
same,EC50,[2]; [6],248 ± 35.1 nM
Clc1ccc2nc(/C=C/C=C/c3ccccc3)cc(NCCCCN3CCOCC3)c2c1 [Compound 114],EC50,[1]; [4],143 ± 18.6 nM
CN(C)CCNc1cc(/C=C/c2ccccc2)nc2ccccc12 [Compound 32],EC50,"[1]; Dd2 strain, read-out: EC50",80.7 ± 22.4 nM
CN(C)CCNc1cc(/C=C/c2cncnc2)nc2ccc(Cl)cc12 [Compound 53],EC50,"[1]; Dd2 strain, read-out: EC50",155 ± 11.6 nM
Fc1ccc(/C=C/c2cc(N3CCCC3)c3cc(Cl)ccc3n2)cc1 [Compound 65],EC50,[1]; [4],428 ± 15 nM
COc1ccc2nc(/C=C/c3cccs3)cc(NCCN(C)C)c2c1 [Compound 40],EC50,[1]; [4],80 ± 7 nM
CN(C)CCNc1cc(/C=C/c2cccc(F)c2)nc2ccc(Cl)cc12 [Compound 31],Projected t1/2,[3],43.2 min
same,Clint,"[3]; mouse, microsomes",32.1 µL/min/mg
same,% remaining after 60 min,"[3]; mouse, microsomes, 1 h",38.2%
same,EC50,[1]; [4],5.9 ± 1.4 nM
same,"RI, resistance index = [IC50 (Dd2)/IC50 (3D7)]",[1]; Dd2 versus 3D7,0.3
same,EC50,[1]; [5],5.9 nM
same,IC50,HepG2,4780 nM
same,"SI, selectivity index = [IC50 (HepG2)/IC50 (Dd2)]",HepG2,810
same,EC50,"[2]; 3D7 strain, read-out: EC50",23 ± 2.8 nM
CN(C)CCNc1cc(/C=C/c2ccccc2)nc2ccc(Cl)cc12 [Compound 22],EC50,[1]; [4],22.4 ± 2 nM
COc1ccc2nc(/C=C/c3cccnc3)cc(NCCN(C)C)c2c1 [Compound 43],EC50,[1]; [4],71 ± 27.5 nM
COc1ccc2nc(CCc3ccncc3)cc(NCCN(C)C)c2c1 [Compound 58],EC50,"[1]; Dd2 strain, read-out: EC50",709 ± 58.2 nM
CN(C)CCNc1cc(/C=C/c2cccnc2)nc2ccc(Cl)cc12 [Compound 52],EC50,[1]; [4],33.6 ± 5.8 nM
CN1CCN(CCCCNc2cc(/C=C/c3ccccc3)nc3ccc(Cl)cc23)CC1 [Compound 94],EC50,[1]; [4],58.9 ± 8.8 nM
COc1ccc2nc(/C=C/c3ccncc3)cc(NCCN(C)C)c2c1 [Compound 41],EC50,"[1]; Dd2 strain, read-out: EC50",33.6 nM and 38.8 nM
Fc1cc(F)c(/C=C/c2cc(NCCCCN3CCOCC3)c3cc(Cl)ccc3n2)cc1F [Compound 107],EC50,[1]; [4],197 ± 39.7 nM
Fc1cc(/C=C/c2cc(NCCCCN3CCOCC3)c3cc(Cl)ccc3n2)cc(F)c1F [Compound 108],EC50,[1]; [4],130 ± 34.9 nM
CN(C)CCNc1cc(/C=C/c2ccncc2)nc2ccc(F)cc12 [Compound 46],EC50,[1]; [4],36.1 ± 2.1 nM
CN(C)CCNc1cc(/C=C/c2ccncc2)nc2ccc(Cl)cc12 [Compound 50],Clint,[3]; mouse liver microsomes,62.2 µL/min/mg
same,Projected t1/2,[3]; mouse liver microsomes (MLM),22.3 min
same,% remaining after 60 min,[3]; [7],15.5%
same,"RI, resistance index = [IC50 (Dd2)/IC50 (3D7)]",[1],0.6 0.6 0.5 0.3 0.5
same,EC50,[1]; [4],28.8 ± 5 nM
same,EC50,"[1]; Dd2 strain, read-out: EC50",28.8 ± 5 nM
same,EC50,[1]; [5],28.8 nM
same,"SI, selectivity index = [IC50 (HepG2)/IC50 (Dd2)]",HepG2,212
same,IC50,HepG2; [8],6110 nM
same,EC50,[2]; read-out: Antiplasmodium activity 3D7 (converted),56.6 nM
CN(C)CCNc1cc(/C=C/c2ccc(F)cc2)nc2ccccc12 [Compound 34],EC50,[1]; [4],25.5 ± 7.1 nM
COc1ccc2nc(/C=C/c3cc(OC)c(OC)c(OC)c3)cc(NCCN(C)C)c2c1 [Compound 14],EC50,[1]; [4],74.2 ± 8.8 nM
COc1ccc2nc(/C=C/c3cc(NCCN(C)C)c4cc(Cl)ccc4n3)ccc2c1 [Compound 55],EC50,"[1]; Dd2 strain, read-out: EC50",281 ± 40.3 nM
CN1CCN(CCCCNc2cc(/C=C/c3ccncc3)nc3ccc(Cl)cc23)CC1 [Compound 96],"RI, resistance index = [IC50 (Dd2)/IC50 (3D7)]",[1],0.9
same,EC50,[1]; [4],33.4 ± 5.4 nM
same,EC50,[1]; [5],33.4 ± 5.4 nM
same,IC50,HepG2,8380 ± 2580 nM
same,"SI, selectivity index = [IC50 (HepG2)/IC50 (Dd2)]",HepG2,251
same,EC50,[2]; [6],36.1 ± 11.3 nM
CN(C)CCNc1cc(/C=C/c2cccc3ccccc23)nc2ccc(Cl)cc12 [Compound 56],EC50,[1]; [4],373 ± 19 nM
Fc1ccc(/C=C/c2cc(NCCCCN3CCOCC3)c3cc(Cl)ccc3n2)nc1 [Compound 111],EC50,[1]; [4],73.1 ± 11.9 nM
CN(C)CCNc1cc(/C=C/c2nccs2)nc2ccc(Cl)cc12 [Compound 49],EC50,[1]; [4],240 ± 30.6 nM
Fc1cnccc1/C=C/c1cc(NCCCCN2CCOCC2)c2cc(Cl)ccc2n1 [Compound 109],EC50,"[1]; Dd2 strain, read-out: EC50",79.6 ± 11.8 nM
Clc1ccc2nc(-c3ccccc3)cc(NCCCCN3CCOCC3)c2c1 [Compound 119],EC50,[1]; [4],423 ± 62.7 nM
CN(C)CCNc1cc(/C=C/c2cccs2)nc2ccc(F)cc12 [Compound 45],EC50,[1]; [4],111 ± 29.1 nM
COc1ccc2nc(/C=C/c3ccc([N+](=O)[O-])cc3)cc(NCCN(C)C)c2c1 [Compound 9],EC50,"[1]; Dd2 strain, read-out: EC50",28.6 ± 0.9 nM
Fc1ccc(/C=C/c2cc(NCCCCN3CCOCC3)c3cc(Cl)ccc3n2)cn1 [Compound 110],EC50,[1]; [4],54.6 ± 16.5 nM
same,IC50,[1]; Dd2 strain,54.6 ± 16.5 nM
Cc1cc(NCCN(C)C)c2cc(Cl)ccc2n1 [Compound 6c],EC50,[1]; [4],732 ± 107 nM
same,EC50,[1]; Dd2 strain,inactive
FC(F)(F)c1ccc(/C=C/c2cc(NCCCCN3CCOCC3)c3cc(Cl)ccc3n2)cc1 [Compound 98],Projected t1/2,[3],64.9 min
same,Clint,"[3]; mouse, microsomes",21.4 µL/min/mg
same,% remaining after 60 min,"[3]; mouse, microsomes, 1 h",52.7%
same,EC50,[1]; [4],30.7 ± 5.2 nM
same,EC50,[1]; [5],30.7 ± 5.2 nM
same,IC50,HepG2,10200 ± 2390 nM
same,"SI, selectivity index = [IC50 (HepG2)/IC50 (Dd2)]",HepG2,332
same,EC50,[2]; [6],73.8 ± 9.7 nM
CN(C)CCNc1cc(/C=C/c2ccccc2F)nc2ccc(Cl)cc12 [Compound 30],EC50,[1]; [4],26 ± 0.9 nM
same,EC50,"[1]; Dd2 strain, read-out: EC50",26 ± 0.9 nM
same,"RI, resistance index = [IC50 (Dd2)/IC50 (3D7)]",[1]; Dd2 versus 3D7,0.5
same,EC50,[1]; [5],26 nM
same,IC50,HepG2,4830 nM
same,"SI, selectivity index = [IC50 (HepG2)/IC50 (Dd2)]",HepG2,186
same,EC50,"[2]; 3D7 strain, read-out: EC50",55.9 ± 9.5 nM
FC(F)(F)c1ccc(/C=C/c2cc(NCCCN3CCOCC3)c3cc(Cl)ccc3n2)cc1 [Compound 91],EC50,[1]; [4],84.8 ± 6.3 nM
COc1ccc2nc(/C=C/c3ccccc3)cc(NCCN(C)C)c2c1 [Compound 8],EC50,"[1]; Dd2 strain, read-out: EC50",41.2 ± 5.3 nM
COc1ccc(/C=C/c2cc(NCCN(C)C)c3cc(Cl)ccc3n2)cc1 [Compound 25],EC50,[1]; [4],34.8 ± 7.9 nM
